Test results as given in patent publication US9445596B2, “Small molecule compounds for the control of nematodes” (California Institute of Technology, priority 2011, dated 2016).
Entries after “also recorded” stand apart in the source; their conditions may differ.

Columns and labels:
C. elegans males = experiment: Attraction assay (long-range, point source); format: in vivo; conditions: point source on 10 cm plate
Method: 10 cm standard chemotaxis plates were prepared (Bargmann et al., Cell 74:515-27 (1993), which is hereby incorporated by reference in its entirety) and stored at 4° C. until the day before use. Standard 1 cm-diameter copper pipes were sectioned into 1 cm-tall segments to use for the holding chambers. The females/hermaphrodites were isolated overnight, washed 3 times in M9 buffer, and then allowed to wander on a plate pre-conditioned with 50 uL of 1000× streptomycin for 2 hours to kill any bacteria that might produce a false positive attractant. The nematodes were then washed 3 times, and the supernatant from the last wash was placed in a copper chamber, as the control, 1 cm from the border of the 10 cm plate. The nematodes were suspended in M9 within the copper chamber, 1 cm from the border opposite the control chamber. After 6 hours, they were subsequently removed and replaced with 3 μL of 1M sodium azide. 100 C. elegans adult males were isolated overnight, washed several times in ddH2O, and placed at the center of the agar plate. After several hours, males paralyzed within 2 cm of each region were scored. The Chemotaxis Index (Bargmann et al., Cell 74:515-27 (1993), which is hereby incorporated by reference in its entirety) was then used to score male chemotaxis to either point source.

[1] = tested on: several of the tested nematode species; experiment: Retention assay, several nematode species; format: in vivo; conditions: 1 nM, 1 μM and 1 mM tested
Method: OP50 E. coli was grown on a standard 5 cm agar plate (made with standard Nematode Growth Medium). The bacterial lawn was 16 mm in diameter and was grown overnight at 20° C. before being used in trials. Two 4 mm spots (0.6 μL) were placed on opposite sides of the bacterial lawn (using a transparent template to guide spot placement), and several minutes elapsed for the liquid to settle in before placing nematodes down on the assay. Recording began immediately upon worm placement. 0.6 μL of the control was placed on one side of the lawn, and 0.6 μL of the experimental cue was placed on the other side of the lawn, changing the location of the cue throughout trials between left/right and top/bottom to avoid bias.
Nematodes were isolated by gender at the L4 stage the day before being used in trials as developed adults. Worms were evenly divided and placed at two points equidistant from the foci of the scoring region. Trials were recorded for 20 minutes, and frames were collected for analysis at 1 frame per second. Results were averaged from at least three different trials. For every nematode species in this study, a different total number of worms (using water in both scoring regions) was tested to determine the minimum number of worms necessary for consistent unbiased results over a 20 minute trial. The total number of worms used in the multiple species assays depended on that species' optimal parameters. 10 worms were used for P. redivivus males and females, 20 worms were used for C. elegans males and O. dolichuridae males, and 14 worms were used for S. glaseri males. The Automated Software was used to compare worm occupancy in each scoring region over time, and the Chemotaxis Index (Bargmann et al., Cell 74:515-27 (1993), which is hereby incorporated by reference in its entirety) was adapted to score preference or avoidance to each ascaroside.
A video camera attached to the microscope produced a digital video stream, which was then analyzed. The ratio of the time the average worm spent in each region of interest was calculated for every trial. For ease of implementation, all worms in a single experiment were assumed to be roughly the same size. Thus worm pixels were counted instead of whole worms, allowing fractions of a worm in the region of interest to be taken into account. It also eliminated the need for a shape-based worm identification algorithm, and allowed each frame to be analyzed independently. A band-pass filter was applied to each frame to eliminate the effect of uneven lighting and also accentuate the worms against the background. The worm was then identified after thresholding the filtered image. Throughout each experiment, the locations and sizes of the regions of interest were known. Through the filtering described above, it is known which pixels are occupied by worms and which ones are not. Thus, the ratio of worm-pixels to all pixels inside the region of interest can be calculated to produce the worm-occupancy ratio. This calculation was done for every frame, giving a plot output of worm-occupancy ratio vs. time for each region.

[2] = tested on: C. elegans hermaphrodites and males; conditions: cited from earlier work
C. elegans = conditions: shown previously; cited from earlier work
P. pacificus = experiment: Dauer formation assay; format: in vivo, Pristionchus pacificus; conditions: synthetic samples; first assayed at 1 μM
Method: Dauer formation assays were performed as described in Ogawa et al., Curr. Biol. 19:67-71 (2009), which is hereby incorporated by reference in its entirety, using heat- or kanamycin-killed E. coli OP50. Synthetic compounds were dissolved in ethanol (0.5 mM, stock solution) and combined with water to make a […] and subsequently added to 3 mL NGM-agar without peptone ([…], 0.3, 0.1 μM final concentrations).

[3] = tested on: P. pacificus strain RSB020; experiment: Mouth-form dimorphism assay; format: in vivo, Pristionchus pacificus
Method: Mouth-form dimorphism assays were performed using P. pacificus strain RSB020. The synthetic compounds dissolved in ethanol (0.5 mM) were diluted with water to make 100 μl solution and subsequently added to 3 mL NGM-agar (1 μM final concentration). The assay plates were seeded with 50 μl OP50 culture in LB medium and incubated overnight at 20° C. to allow bacterial growth. Each replicate included the progeny of two mothers, which were picked as adult hermaphrodites of a consistent age (carrying 4-6 eggs) and which were all from the same P. pacificus culture plate. Following the placement of mothers on assay plates, plates were kept at 20° C. for six days, such that the entire broods were adults at the time of screening. A random sample of 50 hermaphrodite progeny was screened per plate. All animals were screened by differential interference contrast (DIC) microscopy on a Zeiss Axiskop. The following discrete characters were used to discriminate eurystomatous from stenostomatous individuals, respectively: (1) claw-shaped vs. flint-shaped (i.e. dorsoventrally symmetrical) dorsal tooth; (2) presence vs. absence of a subventral tooth; (3) strongly vs. weakly sclerotized stomatal walls. No intermediate mouth-forms were observed. Experiments were conducted in triplicate for each treatment. In assays of responses to compounds of several concentrations (1, 0.3, 0.1, 0.03, 0.01 μM final concentrations), experiments were performed as described above, with the following modifications. To allow greater resolution of responses to lower concentrations, 60 randomly screened individuals in each of five replicates per concentration per compound were assayed. All concentration-curve experiments were performed in parallel using mothers picked randomly from the same two source populations. To prepare large numbers of individual mothers for these experiments, source populations were established from virgin hermaphrodites to constrain the presence of males and were conditioned to well-fed and ambient conditions for at least one generation before mothers were picked for the assays.

[4] = tested on: C. elegans hermaphrodites; experiment: Quadrant chemotaxis assay; format: in vivo; conditions: see FIGS. 48A-B (spot attraction and quadrant chemotaxis assays); wild-type hermaphrodites
Method: Chemotaxis to both non-indole and indole ascarosides was assessed on 10 cm four-quadrant petri plates (Wicks et al., Dev. Biol. 221:295-307 (2000), which is hereby incorporated by reference in its entirety). Each quadrant was separated from adjacent ones by plastic spacers (FIG. 1B). Pairs of opposite quadrants were filled with nematode growth medium (NGM) agar containing either indole ascarosides or non-indole ascarosides at different concentrations. Animals were washed gently in a S-basal buffer, placed in the center of a four-quadrant plate with ascarosides in alternating quadrants, and scored after 15 minutes and 30 minutes. A chemotaxis index was calculated as: (the number of animals on ascaroside quadrants minus the number of animals on buffer quadrants)/(total number of animals).
Chemotaxis to hbas#3 was assessed on 10 cm four-quadrant petri plates (Wicks et al., Dev. Biol. 221:295-307 (2000), which is hereby incorporated by reference in its entirety). Each quadrant was separated from adjacent ones by plastic spacers. Pairs of opposite quadrants were filled with nematode growth medium (NGM) agar containing different concentrations of hbas#3. Animals were washed gently in an S-basal buffer and placed in the center of a four-quadrant plate with ascarosides in alternating quadrants, and scored after 15 minutes and 30 minutes. A chemotaxis index was calculated as: (the number of animals on ascaroside quadrants minus the number of animals on buffer quadrants)/(total number of animals).

[5] = tested on: C. elegans hermaphrodites and males; experiment: Spot attraction assay; format: in vivo
Method: The spot attraction assays were conducted according to a previously reported method (Pungaliya et al., PNAS 106:7708-13 (2009); Srinivasan et al., Nature 454:1115-18 (2008), which are hereby incorporated by reference in their entirety). For both C. elegans hermaphrodites and males, 50-60 worms were harvested daily at the fourth larval stage (L4) and stored segregatedly by sex at 20° C. overnight, to be used as young adults the following day. For the competition experiments, two conditions were used: 120 nM ascr#3 and 10 nM icas#3 (Condition 1), or 12 μM ascr#3 and 1 μM icas#3 (Condition 2) in water containing 10% ethanol. Aliquots were stored at −20° C. in 20 μL tubes. 10% ethanol in water was used as control.
Attraction assays with hbas#3 were conducted as previously reported (Srinivasan et al., Nature 454:1115-18 (2008); Pungaliya et al., Proc. Natl. Acad. Sci. U.S.A. 106:7708-13 (2009), which are hereby incorporated by reference in their entirety). For the attraction assays, 50-60 hermaphrodite worms were harvested daily at the early fourth larval stage (L4) and stored at 20° C. overnight to be used as young adults the following day. Hbas#3 was dissolved in water containing 10% ethanol. Aliquots were stored at −20° C. in 20 μL tubes. 10% ethanol in water was used as control.

[6] = literature (Pungaliya 2009; Srinivasan 2008)
[7] = synthetic samples, first assayed at 1 μM

CC1O[C@@H](O[C@H](C)CCCC/C=C/C(=O)O)[C@@H](O)C[C@H]1O (stereo partly shown) [ascr#3]
lowest amount eliciting male attraction (as low as) (C. elegans males): 5 femtomol
male attraction from a distance / chemotaxis towards a point source (C. elegans males): chemotax towards
preference for areas conditioned by the ascaroside [1]: preferred
most active amount for attraction in C. elegans ([2]; from 1 μM concentration, previous study (Srinivasan 2008)): ~1 pmol
response of social and solitary hermaphrodites ([2]; high dauer-inducing concentrations, previous studies): strongly deter
attraction of males [2, 6]: strongly attracts males
response of hermaphrodites [2, 6]: repels hermaphrodites
promotion of dauer entry (C. elegans): individually promote dauer entry

C[C@H](CC/C=C/C(=O)O)O[C@@H]1O[C@@H](C)[C@H](O)C[C@H]1O [ascr#7]
preference for areas conditioned by the ascaroside [1]: preferred

C[C@H](CCCCC(=O)O[C@@H]1C[C@@H](O)[C@H](O[C@H](C)CCCCC(=O)O)O[C@H]1C)O[C@@H]1O[C@@H](C)[C@H](O)C[C@H]1O [dasc#1, (R)-6-(((2R,3R,5R,6S)-5-(((R)-6-(((2R,3R,5R,6S)-3,5-dihydroxy-6-methyltetrahydro-2H-pyran-2-yl)oxy)heptanoyl)oxy)-3-hydroxy-6-methyltetrahydro-2H-pyran-2-yl)oxy)heptanoic acid]
dauer induction (P. pacificus): inactive in the dauer formation assay
induction of the eurystomatous mouth form [3, 7]: regulates adult morphology; also recorded: strongly induce the eurystomatous mouth form

C[C@H](CCCC/C=C/C(=O)O)O[C@@H]1O[C@@H](C)[C@H](OC(=O)c2ccc(O)cc2)C[C@H]1O [hbas#3, (8R)-(3′R-Hydroxy-5′R-(4-hydroxybenzoyloxy)-6′S-methyl-(2H)-tetrahydropyran-2′-yloxy)non-(2E)-enoic acid]
lowest concentration with strong attraction of C. elegans (as low as) [4]: 10 femtomolar
attraction in the spot attraction assay ([5]; wild-type (N2) hermaphrodites, dose dependent manner): attracted

C[C@H](CCCCC(=O)O)O[C@@H]1O[C@@H](C)[C@H](OC(=O)c2c[nH]c3ccccc23)C[C@H]1O [icas#1]
attraction in the spot attraction assay ([5]; 1 pmol, N2 hermaphrodites and him-5 males): attractive to both C. elegans sexes
attraction in the spot attraction assay ([5]; high concentrations, males and hermaphrodites): attracted both males and hermaphrodites

C[C@H](CCC(=O)O[C@H](C)[C@H](NC(=O)Nc1ncnc2c1ncn2[C@@H]1OC[C@@H](O)[C@H](O)[C@H]1O)C(=O)O)O[C@@H]1O[C@@H](C)[C@H](O)C[C@@H]1O [npar#1, (2S,3R)-3-(((R)-4-(((2R,3S,5R,6S)-3,5-dihydroxy-6-methyltetrahydro-2H-pyran-2-yl)oxy)pentanoyl)oxy)-2-(3-(9-((2R,3R,4S,5R)-3,4,5-trihydroxytetrahydro-2H-pyran-2-yl)-9H-purin-6-yl)ureido)butanoic acid]
dauer induction (P. pacificus): induces dauer arrest; also recorded: strongly induced dauer formation
induction of the eurystomatous mouth form ([3]; high concentrations): weaker induction of the eurystomatous mouth form

C[C@H](CCC(=O)O[C@@H](CNC(=O)CCC(=O)O)c1ccccc1)O[C@@H]1O[C@@H](C)[C@H](O)C[C@H]1O [pasc#9, 4-(((R)-2-(((R)-4-(((2R,3R,5R,6S)-3,5-dihydroxy-6-methyltetrahydro-2H-pyran-2-yl)oxy)pentanoyl)oxy)-2-phenylethyl)amino)-4-oxobutanoic acid]
induction of the eurystomatous mouth form ([3]; high concentrations): weaker induction of the eurystomatous mouth form

C[C@H](CCC(=O)O)O[C@@H]1O[C@@H](C)[C@H](OC(=O)[C@H](C)CNC(N)=O)C[C@H]1OC(=O)CCCCO[C@@H]1O[C@@H](C)[C@H](O)C[C@H]1O [ubas#1, (R)-4-(((2R,3R,5R,6S)-3-((5-(((2R,3R,5R,6S)-3,5-dihydroxy-6-methyltetrahydro-2H-pyran-2-yl)oxy)pentanoyl)oxy)-6-methyl-5-(((R)-2-methyl-3-ureidopropanoyl)oxy)tetrahydro-2H-pyran-2-yl)oxy)pentanoic acid]
induction of the eurystomatous mouth form [3, 7]: inactive
